pIC50: −log10 of the molar value.

For assay [1], the target named is T1, Full-length human PRMT8 (Homo sapiens, UniProt Q9NR22).
T1 construct: Full-length human PRMT8 (NM_019854.4) isoform 1 transcript clone; made in house
The assay can be described thus: PRMT8 biochemical assay (3H-SAM Flashplate, peptide substrate). The essentials:
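Methylation of a biotinylated H4 (31-45) peptide by ³H-SAM was counted after streptavidin Flashplate capture. Purified recombinant PRMT8 and compound were preincubated 30 min at room temperature in Bicine buffer pH 7.6 with TCEP, BSG and Tween 20, and reactions were stopped with unlabeled SAM (final 400 μM). Inhibition versus DMSO and SAH controls was fit by 3- or 4-parameter curves.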

For assay [2], the target named is T2, Full-length human PRMT1 isoform 1 (Homo sapiens, UniProt Q99873).
T2 construct: GST-tagged PRMT1; made in house; host or cells: High Five insect cells (baculovirus, pFastBacI)
T2 sequence (Q99873 with tags, fused parts or gaps): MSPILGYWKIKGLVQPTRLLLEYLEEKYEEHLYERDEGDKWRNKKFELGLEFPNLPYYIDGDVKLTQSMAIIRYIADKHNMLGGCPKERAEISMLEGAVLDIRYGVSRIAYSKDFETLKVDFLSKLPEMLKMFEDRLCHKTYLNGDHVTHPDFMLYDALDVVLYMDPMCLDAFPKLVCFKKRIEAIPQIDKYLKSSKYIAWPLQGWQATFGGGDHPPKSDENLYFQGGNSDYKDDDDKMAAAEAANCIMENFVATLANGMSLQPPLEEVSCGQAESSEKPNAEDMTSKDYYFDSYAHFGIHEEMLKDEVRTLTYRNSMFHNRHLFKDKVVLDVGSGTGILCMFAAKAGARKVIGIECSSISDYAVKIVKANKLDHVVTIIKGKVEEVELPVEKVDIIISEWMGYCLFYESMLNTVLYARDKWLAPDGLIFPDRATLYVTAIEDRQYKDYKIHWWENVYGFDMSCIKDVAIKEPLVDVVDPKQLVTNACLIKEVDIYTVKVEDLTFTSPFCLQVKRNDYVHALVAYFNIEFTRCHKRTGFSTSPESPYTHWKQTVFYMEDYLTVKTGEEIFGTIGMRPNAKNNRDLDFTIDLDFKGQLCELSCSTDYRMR
The assay can be described thus: PRMT1 biochemical assay (3H-SAM Flashplate, peptide substrate). In outline:
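Tritiated methyl transfer from 3H-SAM onto biotinylated peptide, captured on streptavidin Flashplates and counted. Baculovirus-expressed GST-PRMT1 and compound were preincubated 30 min at room temperature in Bicine buffer pH 7.6. Cold SAM at 300 uM final ended the reaction.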

T1 sequence (Q9NR22 whole entry, canonical isoform): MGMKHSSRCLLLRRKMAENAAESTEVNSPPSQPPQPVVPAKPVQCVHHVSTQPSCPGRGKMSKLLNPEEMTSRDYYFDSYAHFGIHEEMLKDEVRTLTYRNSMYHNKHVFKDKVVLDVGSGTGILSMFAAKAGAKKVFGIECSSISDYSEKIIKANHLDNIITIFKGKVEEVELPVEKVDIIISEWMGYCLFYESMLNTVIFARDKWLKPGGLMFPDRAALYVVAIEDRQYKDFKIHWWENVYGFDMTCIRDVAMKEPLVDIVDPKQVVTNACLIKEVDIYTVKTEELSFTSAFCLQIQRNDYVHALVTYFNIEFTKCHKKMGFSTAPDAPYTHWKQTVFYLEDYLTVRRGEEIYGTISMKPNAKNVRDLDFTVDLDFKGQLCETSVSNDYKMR

By pIC50 is commonly meant the IC50 on a negative log10 scale, so that one unit is a factor of ten. Read a low pIC50 as a high IC50. Take `CN(CCN)Cc1c[nH]nc1-c1ccc(Oc2ccc(F)cc2)cc1` [Compound 225, N^1-((3-(4-(4-fluorophenoxy)phenyl)-1H-pyrazol-4-yl)methyl)-N^1-methylethane-1,2-diamine]: the pIC50 in assay [1] and in assay [2] was over 7.00 throughout.

Regarding `CN(CCN)Cc1c[nH]nc1-c1ccc(Oc2ccccc2)c(C(=O)N(C)C)c1` [Compound 226], the pIC50 in assay [1] is 5.00 to 5.52; in assay [2], over 7.00.

On to `CNC(=O)c1cc(-c2n[nH]cc2CN(C)CCN)ccc1Oc1ccccc1` [Compound 227], for which the figures for the pIC50 in assay [1] and in assay [2] were 6.00 to 7.00 and over 7.00, respectively.

As for `CNCCN(C)Cc1c[nH]nc1-c1ccc(OCCCOC)c(Cl)c1` [Compound 228], the pIC50 in assay [1] is 6.00 to 7.00; in assay [2], over 7.00.

Turning to `CNCCN(C)Cc1cnn(CC(=O)OC)c1-c1ccc(OC(C)C)cc1` [Compound 249], the pIC50 in assay [1] was 5.52 to 6.00; in assay [2], 6.00 to 7.00.

Take `CNCCN(C)Cc1cn(CC(=O)O)nc1-c1ccc(OC(C)C)cc1` [Compound 250]: the pIC50 is 5.52 to 6.00 in assay [1] and 6.00 to 7.00 in assay [2].

`CNCCN(C)Cc1cn(C2CCCCC2)nc1-c1ccc(OC(C)C)cc1` [Compound 256]: the results for the pIC50 in assay [1] and in assay [2] were 5.52 to 6.00 and 6.00 to 7.00, respectively.

These data come from patent publication US9346761B2, “Arginine methyltransferase inhibitors and uses thereof” (Epizyme, Inc., priority 2013, dated 2016).
